Test results taken from patent publication US20240423981A1, “TREATMENT OF HCM WITH PYRIMIDINEDIONE COMPOUNDS” (MyoKardia, Inc., priority 2017, published 2024).

Columns and labels:
Assay type in all cases: in vivo, human
healthy volunteers = test: Adverse events in healthy volunteers of the Phase 1 trials
Protocol: (§1) Three clinical studies have investigated the safety and tolerability of Compound 1 to date; conduct of 2 studies has completed and 1 study is ongoing. A double-blind, placebo-controlled, single ascending-dose study (SAD) (Compound 1-002) was conducted in healthy men. Subjects received single doses ranging from 1 mg to 48 mg. Conduct of an open-label sequential-group SAD study in subjects with clinically stable HCM (Compound 1-001) is also complete; single doses of up to 144 mg were administered. In addition, a double-blind, placebo-controlled, multiple ascending-dose (MAD) study (Compound 1-003) is being conducted in which healthy adult subjects have received multiple doses of Compound 1 up to 25 mg once daily (QD) for up to 28 days.

healthy adult subjects = test: Study Compound 1-003: multiple ascending-dose (MAD) trial in healthy volunteers
Protocol: as §1
In Study Compound 1-003, 4 cohorts of healthy adult subjects have been dosed, each scheduled to dose for 28 days. […] In cohort 3, 3 of 12 subjects who received blinded treatment (either Compound 1 12.5 mg or placebo QD) had diarrhea and/or abdominal cramps. One of these subjects was discontinued due to recurrence of diarrhea upon rechallenge, and the other 2 subjects were successfully restarted on study medication. The investigator considered these gastrointestinal AEs either mild or moderate in severity and likely related to study medication.
Dosing in cohort 4 was stopped on Day 25 by the investigator, because 5 of 12 subjects who received blinded treatment (either Compound 1 25 mg or placebo QD) achieved the predefined stopping criterion for dose ascension of ≥20% reduction in LVEF. All subjects remained asymptomatic.

[1] = Parts A and B of the phase 2 trial (PIONEER), pooled findings; settings: human, plasma, oral; read-out: concentrations associated with excessive pharmacological effect
Description: (§2) This is a phase 2 open-label pilot study to evaluate the efficacy, PK, PD, safety, and tolerability of Compound 1 in subjects with symptomatic HCM and LVOT obstruction. Approximately 10 adult subjects with symptomatic HCM, a resting LVOT gradient ≥30 mm Hg, and post-exercise peak LVOT gradient ≥50 mm Hg will be enrolled. The study will have a 12-week treatment phase and a 4-week washout phase (FIG. 3).
(§3) This trial was similar to the trial described in Example 3, but will have several important differences. For example, subjects in the Phase 2-B trial will not be required to discontinue their β-blocker therapy, and the dose of Compound 1 will be reduced to 2 to 5 mg.
(§4) Compound 1 concentrations were measured in human plasma using high pressure liquid chromatography (HPLC) coupled with tandem mass spectrometry (MS/MS). This method was used for Compound 1 bioanalysis in all clinical trials to date, and all clinical data has been collected using plasma. A brief description of the method follows.
(§5) Liquid-liquid extraction and HPLC/MS/MS was used to determine the concentration of Compound 1 in human plasma. An aliquot of the extract was injected onto an HPLC instrument that is coupled with a triple quadrupole mass spectrometer (Sciex API5500). A Lux 3u Cellulose-4 HPLC column (150×2.0 mm) from […], was used to separate Compound 1, from interfering compounds that may be present in the sample extract. The internal standard was a multi-deuterated analog of Compound 1 to ensure that the internal standard used in the assay had similar chemical properties to the analyte but a different mass for selective detection. The peak area of the product ion of Compound 1 was measured against the peak area of the product ion of the internal standard for determination of concentration.

[2] = test system: obstructive HCM (oHCM) patients; test: as above
Description: as §2, §3, §4, §5

[3] = test system: subjects with clinically stable HCM; test: Study Compound 1-001 (MYK-461-001): SAD trial in HCM patients; settings: for LVOT Gradient Post-dose: upon provocation
Protocol: as §1
In Study MYK-461-001, single doses of up to 144 mg were administered to 15 subjects with HCM. […] In terms of causality assessment, there are no nonclinical or other clinical data to implicate Compound 1 in cardiac ion channel current modulation, or cardiac impulse generation or conduction. […] Other potential contributions to the event include chronic […] with metoprolol succinate 150 mg QD, and the observation that the subject inadvertently performed the Valsalva maneuver during the handgrip strength assessment immediately prior to the event.
LVOT obstruction was resolved in patients following a single dose of Compound 1, as shown in the results in Table 2. […] Each patient was administered single 96 mg dose of Compound 1. Both patients' gradients were resolved following dosing.

[4] = test system: healthy volunteers and HCM patients; test: Phase 1 program summary (three Phase 1 studies)
Protocol: as §1

[5] = 12.5 mg cohort, 28-day treatment
[6] = 25 mg cohort treated for 25 days

For `CC(C)n1c(=O)cc(N[C@@H](C)c2ccccc2)[nH]c1=O` [Compound 1, (S)-3-Isopropyl-6-((1-phenylethyl)amino) pyrimidine-2, 4(1H,3H)-dione], which SAEs (healthy volunteers) is on record?
The SAEs was “No SAEs reported”.

And the “severity of adverse events” value (healthy volunteers)?
Its value is “all mild to moderate”.

What about the “number of AEs reported” value (healthy volunteers; in 33 subjects) of the same compound?
The value was 54.

What about the “PD evidence of reduced contractility” value (healthy adult subjects; 12.5 mg QD and 25 mg QD groups) of the same compound?
Its value is “PD evidence of reduced contractility was apparent”.

And the Responders % (healthy adult subjects; [5])?
The Responders % was 30%.

What about the Responders n (healthy adult subjects; [5]) of the same compound?
The Responders n was 3/10.

What about the Responders n (healthy adult subjects; 18.5 mg cohort, 28-day treatment) of the same compound?
The Responders n was 10/10.

What about the Responders % (healthy adult subjects; [6]) of the same compound?
The Responders % was 100%.

What about the Responders n (healthy adult subjects; [6]) of the same compound?
Its Responders n is 10/10.

And the Responders % (healthy adult subjects; 25 mg cohort, 28-day treatment)?
Its Responders % is 100%.

And the “subjects with diarrhea and/or abdominal cramps” value (healthy adult subjects; cohort 3, blinded treatment (Compound 1 12.5 mg or placebo QD))?
The value was 3 of 12.

What about the “gastrointestinal AEs” value (healthy adult subjects; cohort 4 (Compound 1 25 mg or placebo)) of the same compound?
The value was “No gastrointestinal AEs were reported”.

And the “subjects achieving stopping criterion of ≥20% reduction in LVEF” value (healthy adult subjects; cohort 4, blinded treatment (Compound 1 25 mg or placebo QD), dosing stopped on Day 25)?
The value was 5 of 12.

And the “AE severity and SAEs” value (healthy adult subjects; multiple doses up to 25 mg QD)?
Its value is “All AEs were mild or moderate in severity, and there were no SAEs”.

What about the tolerability (healthy adult subjects; multiple doses up to 25 mg QD, healthy adults) of the same compound?
The tolerability was “well tolerated”.

And the concentration at 12 weeks [1]?
The concentration at 12 weeks was greater than 1000 ng/mL.

What about the “effects accompanying the gradient reduction” value ([2]; Parts A and B) of the same compound?
The value was “improvement in symptoms, pVO2 during exercise, a decrease in NT pro-BNP and improvement in echocardiographic measures of diastolic function”.

What about the diastolic function ([2]; Parts A and B, Tables 9 and 10) of the same compound?
Its diastolic function is “diastolic improvement”.

What about the “tolerability of the therapeutic concentration range” value ([2]; associated with limited decrease in LVEF) of the same compound?
The value was “well tolerate”.

What about the “compliance of the left ventricle” value ([2]; increase in LVEDV with reduction in LV filling pressure (E/e′), emerging data, Cohorts A and B) of the same compound?
Its value is “improving compliance of the left ventricle”.

What about the “LVEF maintained with clinical improvement in oHCM (symptom improvement and peak VO2)” value ([2]; plasma concentrations of 350 to 700 ng/mL) of the same compound?
Its value is no less than 55%.

And the “LVOT gradient level reached” value ([2]; plasma concentrations of 350 to 700 ng/mL, generally)?
Its value is less than 30 mm Hg.

And the Responders % ([3]; 48 mg single dose cohort)?
The Responders % was 50%.

What about the Responders n ([3]; 48 mg single dose cohort) of the same compound?
Its Responders n is 2/4.

What about the Responders % ([3]; 96 mg single dose cohort) of the same compound?
The Responders % was 83%.

And the Responders n ([3]; 96 mg single dose cohort)?
Its Responders n is 5/6.

What about the Responders % ([3]; 144 mg single dose cohort) of the same compound?
Its Responders % is 80%.

What about the Responders n ([3]; 144 mg single dose cohort) of the same compound?
Its Responders n is 4/5.

What about the “LVOT gradients following Valsalva after dosing” value ([3]; 2 subjects, single 96 mg dose) of the same compound?
The value was less than 10 mm Hg.

And the “LVOT Gradient % Decrease” value ([3]; Patient 1, single 96 mg dose)?
The value was “(79%)”.

And the “LVOT Gradient Post-dose” value ([3]; Patient 1, single 96 mg dose, pre-dose 42)?
Its value is 9 mmHg.

What about the “LVOT Gradient % Decrease” value ([3]; Patient 2, single 96 mg dose) of the same compound?
Its value is “(82%)”.

And the “LVOT Gradient Post-dose” value ([3]; Patient 2, single 96 mg dose, pre-dose 28)?
Its value is 5 mmHg.

And the “proof of mechanism: LV contractility” value ([3]; all subjects with HCM, single doses 48-144 mg)?
The value was “reduced LV contractility by at least 1 of 3 independent echocardiographic measures”.

What about the “number of adverse events (AEs)” value ([3]; human, in vivo) of the same compound?
The value was 35.

And the “severity of adverse events” value ([3]; human, in vivo)?
Its value is “all mild to moderate”.

What about the tolerability ([3]; single doses of up to 144 mg, 15 subjects with HCM) of the same compound?
Its tolerability is “well tolerated without deaths, withdrawals due to AEs, or dose-related treatment-emergent AEs, except for 1 of 5 subjects who received the 144 mg dose”.

What about the “LVOT obstruction after a single dose” value ([3]; two subjects with LVOT pressure gradient, single 96 mg dose) of the same compound?
Its value is “resolved”.

And the “proof of mechanism: cardiac contractility” value [4]?
The value was “dependent reduction in cardiac contractility”.
